Source: patent US10513623B2, “Aqueous ink, ink cartridge and image recording method” (CANON KABUSHIKI KAISHA, priority 2017, dated 2019)

How the values were obtained:
[1] = Log distribution coefficient of solvent A; type: physicochemical
[2] = Aqueous solubility of solvent A at 20° C.; type: physicochemical; details: for Aqueous solubility: 20° C.

Structure (SMILES) | Log distribution coefficient [1] | Aqueous solubility [2] | aqueous solubility of the solvent A ([2]; solvent A of ink 1, rounded value)
CC(O)COc1ccccc1 (centres unmarked) [1-Phenoxy-2-propanol] | 1.51 | 1.1 % by mass | 
CC(O)Cc1ccccc1 (centres unmarked) [1-Phenyl-2-propanol] | 1.71 | 0.58 % by mass | 
OCCOc1ccccc1 [2-Phenoxyethanol] | 1.16 | 2.67 % by mass | 2.7%
OCCCc1ccccc1 [3-Phenyl-1-propanol] | 1.88 | 0.568 % by mass | 
OCCCCc1ccccc1 [4-Phenyl-1-butanol] | 2.4 | 0.1 % by mass | 

Next, values leading:

Log distribution coefficient [1] | Aqueous solubility [2] | aqueous solubility of the solvent A ([2]; solvent A of ink 1, rounded value) | Structure (SMILES)
1.03 | 4.29 % by mass |  | OCc1ccccc1 [Benzyl alcohol]
 | 2.2 % by mass |  | OCCc1ccccc1 [Phenethyl alcohol]
